Measurements taken from US6962912B2, “Substituted pyrazolo[4,3-e]diazepines, pharmaceutical compositions containing them, use as medicinal products and processes for preparing them” (Warner-Lambert LLC, priority 2000, dated 2005).

Columns and labels:
PDE4 = assay: Inhibition of PDE4 (cytosolic enzyme preparation from U937 line), compared with rolipram; format: biochemical, human; details: PDE4 enzyme preparation obtained from the U937 line

melting point [°C] | IC50 (PDE4) [nM] | Structure (SMILES)
120 | 110 | CCn1nc(C)c2c1C(=O)NCC(C(C)(C)C)=N2 [Example 33, 5-tert-Butyl-1-ethyl-3-methyl-6,7-dihydro-1H-pyrazolo[4,3-e][1,4]diazepin-8-one]
151.5 | 0.65 | CCCCc1nn(CC)c2c1N=C(c1ccccc1)CNC2=S [Example 52, 3-Butyl-1-ethyl-5-phenyl-6,7-dihydro-1H-pyrazolo[4,3-e][1,4]diazepin-8-thione]
153 | 240 | CCn1nc(C)c2c1C(=O)NCC(c1ccccn1)=N2 [Example 54, 1-Ethyl-3-methyl-5-pyrid-2-yl-6,7-dihydro-1H-pyrazolo[4,3-e][1,4]diazepin-8-one]
250 | 0.13 | CCn1nc(C(C)(C)C)c2c1C(=NC#N)NCC(c1ccccc1)=N2 [Example 57, 3-tert-Butyl-1-ethyl-5-phenyl-6,7-dihydro-1H-pyrazolo[4,3-e][1,4]diazepin-8-ylidene-cyanamide]
195 | 580 | CCn1nc(C)c2c1C(=O)NCC(c1ccc(C(F)(F)F)cc1)=N2 [Example 60, 1-Ethyl-3-methyl-5-(4-trifluoromethylphenyl)-6,7-dihydro-1H-pyrazolo[4,3-e][1,4]diazepin-8-one]
162.9 | 5 | CCCn1nc(C(C)C)c2c1C(=S)NCC(c1ccc(C)cc1)=N2 [Example 63, 3-Isopropyl-1-propyl-5-p-tolyl-6,7-dihydro-1H-pyrazolo[4,3-e][1,4]diazepin-8-thione]
205 | 4.6 | CCCn1nc(C(C)(C)C)c2c1C(=S)NCC(C(C)(C)C)=N2 [Example 64, 3,5-Di-tert-butyl-1-propyl-6,7-dihydro-1H-pyrazolo[4,3-e][1,4]diazepin-8-thione]
165 | 1.5 | CCCn1nc(C(C)C)c2c1C(=S)NCC(C(C)(C)C)=N2 [Example 65, 5-tert-Butyl-3-isopropyl-1-propyl-6,7-dihydro-1H-pyrazolo[4,3-e][1,4]diazepin-8-thione]
178 | 0.63 | CCn1nc(C(C)C)c2c1C(=S)NCC(c1ccc(C)cc1)=N2 [Example 66, 1-Ethyl-3-isopropyl-5-p-tolyl-6,7-dihydro-1H-pyrazolo[4,3-e][1,4]diazepin-8-thione]
218 | 1 | CCn1nc(C(C)C)c2c1C(=S)NCC(C(C)(C)C)=N2 [Example 67, 5-tert-Butyl-1-ethyl-3-isopropyl-6,7-dihydro-1H-pyrazolo[4,3-e][1,4]diazepin-8-thione]
243 | 0.22 | CCn1nc(C(C)C)c2c1C(=NC#N)NCC(C(C)(C)C)=N2 [Example 80, 5-tert-Butyl-1-ethyl-3-isopropyl-6,7-dihydro-1H-pyrazolo-[4,3-e][1,4]diazepin-8-ylidenecyanamide]
245 | 0.54 | CCn1nc(C(C)C)c2c1C(=NC#N)NCC(c1ccc(C)cc1)=N2 [Example 81, 1-Ethyl-3-isopropyl-5-p-tolyl-6,7-dihydro-1H-pyrazolo-[4,3-e][1,4]diazepin-8-ylidenecyanamide]
150 | 62 | CCn1nc(C(C)C)c2c1C(=O)NCC(c1ccc(OC)cc1)=N2 [Example 82, 1-Ethyl-3-isopropyl-5-(4-methoxyphenyl)-6,7-dihydro-1H-pyrazolo[4,3-e][1,4]diazepin-8-one]
265 | 60 | CCn1nc(C)c2c1C(=NC#N)NCC(c1ccc(OC)cc1)=N2 [Example 84, 1-Ethyl-3-methyl-5-(4-methoxyphenyl)-6,7-dihydro-1H-pyrazolo[4,3-e][1,4]diazepin-8-ylidenecyanamide]
142 | 200 | CCCn1nc(C(C)C)c2c1C(=O)NCC(c1ccc(OC)cc1)=N2 [Example 85, 3-Isopropyl-5-(4-methoxyphenyl)-1-propyl-6,7-dihydro-1H-pyrazolo[4,3-e][1,4]diazepin-8-one]
180 | 310 | CCn1nc(C(C)(C)C)c2c1C(=O)NCC(c1ccc(OC)cc1)=N2 [Example 86, 3-tert-Butyl-1-ethyl-5-(4-methoxyphenyl)-6,7-dihydro-1H-pyrazolo[4,3-e][1,4]diazepin-8-one]
167 | 41 | CCCn1nc(C(C)(C)C)c2c1C(=O)NCC(c1ccc(OC)cc1)=N2 [Example 87, 3-tert-Butyl-5-(4-methoxyphenyl)-1-propyl-6,7-dihydro-1H-pyrazolo[4,3-e][1,4]diazepin-8-one]
300 | 2.1 | CCn1nc(C)c2c1C(=NC#N)NCC(c1ccc(O)cc1)=N2 [Example 88, 1-Ethyl-3-methyl-5-(4-hydroxyphenyl)-6,7-dihydro-1H-pyrazolo[4,3-e][1,4]diazepin-8-ylidenecyanamide]
208 | 900 | CCn1nc(C)c2c1C(=O)NCC(c1cc(OC)c(OC)c(OC)c1)=N2 [Example 91, 1-Ethyl-3-methyl-5-(3,4,5-trimethoxyphenyl)-6,7-dihydro-1H-pyrazolo[4,3-e][1,4]diazepin-8-one]
204 | 92 | CCn1nc(C)c2c1C(=O)NCC(c1cccc(O)c1)=N2 [Example 92, 1-Ethyl-5-(3-hydroxyphenyl)-3-methyl-6,7-dihydro-1H-pyrazolo[4,3-e][1,4]diazepin-8-one]
220 | 7.4 | CCn1nc(C)c2c1C(=O)NCC(c1ccccc1O)=N2 [Example 93, 1-Ethyl-5-(2-hydroxyphenyl)-3-methyl-6,7-dihydro-1H-pyrazolo[4,3-e][1,4]diazepin-8-one]
230 | 2.1 | CCn1nc(C(C)C)c2c1C(=O)NCC(c1ccc(O)cc1)=N2 [Example 94, 1-Ethyl-5-(4-hydroxyphenyl)-3-isopropyl-6,7-dihydro-1H-pyrazolo[4,3-e][1,4]diazepin-8-one]
230 | 15 | CCCn1nc(C(C)C)c2c1C(=O)NCC(c1ccc(O)cc1)=N2 [Example 95, 5-(4-Hydroxyphenyl)-3-isopropyl-1-propyl-6,7-dihydro-1H-pyrazolo[4,3-e][1,4]diazepin-8-one]
264 | 4.9 | CCn1nc(C(C)(C)C)c2c1C(=O)NCC(c1ccc(O)cc1)=N2 [Example 96, 3-tert-Butyl-1-ethyl-5-(4-hydroxyphenyl)-6,7-dihydro-1H-pyrazolo[4,3-e][1,4]diazepin-8-one]

Structure (SMILES) | melting point [°C] | IC50 (PDE4) [nM]
CCn1nc(C)c2c1C(=O)NCC(c1cccnc1)=N2 [Example 53, 1-Ethyl-3-methyl-5-pyrid-3-yl-6,7-dihydro-1H-pyrazolo[4,3-e][1,4]diazepin-8-one] | 178 | 260
